Results taken from patent US20250205350A1, “Antibody-Drug Conjugates and Uses Thereof” (Vivasor, Inc., priority 2022, published 2025).

Tests used:
MDA-MB-468 (HER2−) = test: In vitro cell viability (CellTiter-Glo) of camptothecin derivatives in MDA-MB-468; assay type: cell-based, human; settings: 120-hour assay
Protocol: (§1) The in vitro efficacies of camptothecin derivatives were evaluated using the following human cancer cell lines: SkBr-3 (Her2+) and MDA-MB-468 (HER2−), purchased from the American Type Culture Collection (ATCC; Manassas, VA) and were routinely cultured in DMEM/F-12 medium (Catalog #10-090-CV; Corning) supplemented with 10% fetal bovine serum (FBS; Catalog #MT35011CV; Corning) and 1× Penicillin-Streptomycin (Catalog #30-002-CI; Corning) and maintained at 37° C. with 5% CO2 in a humidified environment.
(§2) Tumor cells were harvested by detachment with cell stripper. Viable cell counts were made by Trypan blue exclusion using a Countess or Countess II automated cell counter. Cell Viability Assay: All cells were harvested and seeded into 384-well white wall clear bottom plates (Catalog #3765; Corning) at a density of 875 cells/well in DMEM/F-12 medium supplemented with 10% fetal bovine serum and 1× Penicillin-Streptomycin (complete growth media). Plates were maintained at 37° C. for 4-6 hours to allow cells to adhere to the plate. The outer wells of plates contained complete growth medium only and were used for background subtraction for the cell viability assay. Working solutions of test articles were prepared at 2× final concentrations with 5-fold serial dilutions in complete growth medium. Cell treatment was performed in triplicates and maintained at 37° C. for 120-hour assay. After treatment, cell viability was determined by CellTiter-Glo 2.0 assay (Catalog #G9243; Promega; Madison, WI, USA) based on the manufacturer's instructions. CellTiter Glo reagent reacts with ATP in metabolically active cells to give a luminescent readout that is directly proportional to the number of viable cells. Briefly, plates were removed from the incubator and equilibrated to room temperature before addition of CellTiter Glo reagent. Luminescence was measured using a Tecan Spark microplate reader (Tecan; Mannedorf, Switzerland).
(§3) For Cytotoxicity assays, raw luminescence data was background subtracted with average luminescence from the outer wells containing medium only and normalized to untreated controls using Excel (Microsoft; […]). Dose-response relationships and EC50 values were determined based on non-linear regression analysis of normalized data fit to a four-parameter logistic equation using GraphPad Prism 8.0.

SkBr-3 (Her2+) = test: In vitro cell viability (CellTiter-Glo) of camptothecin derivatives in SkBr-3; assay type: cell-based, human; settings: 120-hour assay
Protocol: as §1, §2, §3

HER2-negative MDA-MB-468 = test: In vitro cell viability (CellTiter-Glo) of anti-HER2 ADCs in MDA-MB-468; assay type: cell-based; settings: Homo sapiens, MDA-MB-468, 120 h, 120-hour assay
Protocol: as §1, with “ADCs” for “The in vitro efficacies of camptothecin derivatives”, “HER2-positive SkBr-3, HER2-positive NCI-N87,” for “SkBr-3 (Her2+)”, “HER2-negative MDA-MB-468,” for “MDA-MB-468 (HER2−),”, “#[…];” for “#10-090-CV;”
(§4) Tumor cells were harvested by detachment with cell stripper. Viable cell counts were made by Trypan blue exclusion using a Countess or Countess II automated cell counter. […] After treatment, cell viability was determined by CellTiter-Glo 2.0 assay (Catalog #G9243; Promega; Madison, WI, USA) based on the manufacturer's instructions. CellTiter Glo reagent reacts with ATP in metabolically active cells to give a luminescent readout that is directly proportional to the number of viable cells. […] Luminescence was measured using a Tecan Spark microplate reader (Tecan; Mannedorf, Switzerland).
(§5) For Cytotoxicity assays, raw luminescence data was background subtracted with average luminescence from the outer wells containing medium only and normalized to untreated controls using Excel (Microsoft; Albuquerque, NM). […]

HER2-positive SkBr-3 = test: In vitro cell viability (CellTiter-Glo) of anti-HER2 ADCs in SkBr-3; assay type: cell-based; settings: Homo sapiens, SK-BR-3, 120 h, Table 6; 120-hour assay
Protocol: as §1, with “ADCs” for “The in vitro efficacies of camptothecin derivatives”, “HER2-positive SkBr-3, HER2-positive NCI-N87,” for “SkBr-3 (Her2+)”, “HER2-negative MDA-MB-468,” for “MDA-MB-468 (HER2−),”, “#[…];” for “#10-090-CV;”
as §4, §5

[1] = Homo sapiens, MDA-MB-468, 120 h, Table 4B
[2] = Homo sapiens, SK-BR-3, 120 h, Table 4B
[3] = Table 4A, derivatives as TFA salt, exatecan mesylate
[4] = Homo sapiens, MDA-MB-468, 120 h, Table 4A, derivatives as TFA salt, exatecan mesylate
[5] = Homo sapiens, SK-BR-3, 120 h, Table 4A, derivatives as TFA salt, exatecan mesylate

Molecule `CC[C@]1(O)C(=O)OCc2c1cc1n(c2=O)Cc2c-1nc1cc(F)c(C)c3c1c2[C@H](NC(=O)C1(N)CCOC1)CC3` (stereo partly drawn) [Compound L078-149] has an EC50 (MDA-MB-468 (HER2−); [1]) of 5.01 nM and an EC50 (SkBr-3 (Her2+); [2]) of 7.71 nM.

Molecule `CC[C@]1(O)C(=O)OCc2c1cc1n(c2=O)Cc2c-1nc1cc(F)c(C)c3c1c2[C@H](NC(=O)C1CCNCC1)CC3` [Compound L078-081] has an EC50 (MDA-MB-468 (HER2−); [3]) of 81.4 nM and an EC50 (SkBr-3 (Her2+); [3]) of 163 nM.

With `CC[C@]1(O)C(=O)OCc2c1cc1n(c2=O)Cc2c-1nc1cc(F)c(C)c3c1c2[C@H](NC(=O)[C@H]1CCN1)CC3` [Compound L078-042] the EC50 (MDA-MB-468 (HER2−); [4]) was 5.7 nM and the EC50 (SkBr-3 (Her2+); [5]) was 2.3 nM.

With `CC[C@]1(O)C(=O)OCc2c1cc1n(c2=O)Cc2c-1nc1cc(F)c(C)c3c1c2[C@H](NC(=O)C1CNC1)CC3` [Compound L078-030] the EC50 (MDA-MB-468 (HER2−); [4]) was 57.2 nM and the EC50 (SkBr-3 (Her2+); [5]) was 49.6 nM.

`CC[C@]1(O)C(=O)OCc2c1cc1n(c2=O)Cc2c-1nc1cc(F)c(C)c3c1c2[C@H](NC(=O)[C@H]1CNCCO1)CC3` [Compound L078-046] was tested, and the EC50 (MDA-MB-468 (HER2−); [4]) was 5.7 nM and the EC50 (SkBr-3 (Her2+); [5]) was 5.5 nM.

Molecule `CC[C@@]1(O)C(=O)OCc2c1cc1n(c2=O)Cc2c-1nc1cc(F)c(C)c3c1c2[C@@H](N)CC3` [Exatecan, exatecan, reference compound] has an EC50 (MDA-MB-468 (HER2−); [4]) of 1.1 nM, an EC50 (MDA-MB-468 (HER2−); [1]) of 1.99 nM and an EC50 (SkBr-3 (Her2+); [5]) of 0.69 nM.

`CC[C@]1(O)C(=O)OCc2c1cc1n(c2=O)Cc2c-1nc1cc(F)c(C)c3c1c2[C@H](NC(=O)C1(N)COC1)CC3` [Compound L078-088] was tested, and the EC50 (MDA-MB-468 (HER2−); [1]) was 7.32 nM and the EC50 (SkBr-3 (Her2+); [2]) was 2.72 nM.

`CC[C@@]1(O)C(=O)OCc2c1cc1n(c2=O)Cc2c-1nc1cc(F)c(C)c3c1c2[C@@H](NC(=O)CO)CC3` [Dxd, reference compound] was tested, and the EC50 (MDA-MB-468 (HER2−); [4]) was 2 nM, the EC50 (MDA-MB-468 (HER2−); [1]) was 3.16 nM and the EC50 (HER2-negative MDA-MB-468; Table 5) was 2.55 nM. It also gave an EC50 (HER2-negative MDA-MB-468; Table 6) of 2.57 nM, an EC50 (HER2-positive SkBr-3) of 3.84 nM and an EC50 (SkBr-3 (Her2+); [5]) of 2.2 nM. The EC50 (SkBr-3 (Her2+); [2]) was 3.66 nM.

`CC[C@]1(O)C(=O)OCc2c1cc1n(c2=O)Cc2c-1nc1cc(F)c(C)c3c1c2[C@H](NC(=O)[C@H]1COCCN1)CC3` [Compound L078-049] was tested, and the EC50 (MDA-MB-468 (HER2−); [4]) was 4.7 nM and the EC50 (SkBr-3 (Her2+); [5]) was 2.3 nM.

In the case of `CC[C@]1(O)C(=O)OCc2c1cc1n(c2=O)Cc2c-1nc1cc(F)c(C)c3c1c2[C@H](NC(=O)[C@@H]1CCCN1)CC3` [Compound L078-066], the EC50 (MDA-MB-468 (HER2−); [4]) is reported as 5.6 nM and the EC50 (SkBr-3 (Her2+); [5]) is reported as 3 nM.

Work on `CC[C@]1(O)C(=O)OCc2c1cc1n(c2=O)Cc2c-1nc1cc(F)c(C)c3c1c2[C@H](NC(=O)c1cccc(N)n1)CC3` [Compound L078-029] yielded an EC50 (MDA-MB-468 (HER2−); [3]) of 2 nM and an EC50 (SkBr-3 (Her2+); [3]) of 0.8 nM.

`CC[C@]1(O)C(=O)OCc2c1cc1n(c2=O)Cc2c-1nc1cc(F)c(C)c3c1c2[C@H](NC(=O)C1(N)CCOCC1)CC3` [Compound L078-150] was tested, and the EC50 (MDA-MB-468 (HER2−); Table 4B) was 3.01 nM.

For `CC[C@]1(O)C(=O)OCc2c1cc1n(c2=O)Cc2c-1nc1cc(F)c(C)c3c1c2[C@H](NC(=O)[C@H]1CCCN1)CC3` [Compound L078-065], the EC50 (MDA-MB-468 (HER2−); [4]) was 6 nM and the EC50 (SkBr-3 (Her2+); [5]) was 3.2 nM.

Work on `CC[C@]1(O)C(=O)OCc2c1cc1n(c2=O)Cc2c-1nc1cc(F)c(C)c3c1c2[C@H](NC(=O)[C@@H]1COCCN1)CC3` [Compound L078-048] yielded an EC50 (MDA-MB-468 (HER2−); [4]) of 5.7 nM and an EC50 (SkBr-3 (Her2+); [5]) of 5.6 nM.

`CC[C@]1(O)C(=O)OCc2c1cc1n(c2=O)Cc2c-1nc1cc(F)c(C)c3c1c2[C@H](NC(=O)[C@@H]1CNCCO1)CC3` [Compound L078-047] was tested, and the EC50 (MDA-MB-468 (HER2−); [4]) was 15.7 nM and the EC50 (SkBr-3 (Her2+); [5]) was 11 nM.

`CC[C@]1(O)C(=O)OCc2c1cc1n(c2=O)Cc2c-1nc1cc(F)c(C)c3c1c2[C@H](NC(=O)[C@@H]1CCN1)CC3` [Compound L078-043] gave an EC50 (MDA-MB-468 (HER2−); [4]) of 3.7 nM and an EC50 (SkBr-3 (Her2+); [5]) of 1.8 nM.

For `CC[C@]1(O)C(=O)OCc2c1cc1n(c2=O)Cc2c-1nc1cc(F)c(C)c3c1c2[C@H](NC(=O)[C@@H]1C[C@@H](F)CN1)CC3` [Compound L078-051], the EC50 (MDA-MB-468 (HER2−); [4]) was 5.4 nM and the EC50 (SkBr-3 (Her2+); [5]) was 2.8 nM.
